# Data reported in patent publication US11203587B2, “Thyroid hormone receptor beta agonist compounds” (Terns, Inc., priority 2018, dated 2021).
# Assays:
# THR beta-LBD = biological target: T1, THR beta-LBD (Homo sapiens, UniProt P10828); test: LanthaScreen TR-FRET Thyroid Receptor beta Coactivator Assay; assay type: biochemical; details: for THRβ-Selectivity: THR beta over THR alpha, derived from T3-selectivity normalized data; for EC50: TR-FRET coactivator assay, 2 hours incubation at room temperature, run in duplicate multiple times, average data, read-out: EC50 THRβ-FRET
# T1 construct: THR alpha-LBD (0.4 nM final concentration) or THR beta-LBD (1.0 nM final concentration) was added; purchased ThermoFisher
# T1 sequence (P10828 217-461 limits assumed): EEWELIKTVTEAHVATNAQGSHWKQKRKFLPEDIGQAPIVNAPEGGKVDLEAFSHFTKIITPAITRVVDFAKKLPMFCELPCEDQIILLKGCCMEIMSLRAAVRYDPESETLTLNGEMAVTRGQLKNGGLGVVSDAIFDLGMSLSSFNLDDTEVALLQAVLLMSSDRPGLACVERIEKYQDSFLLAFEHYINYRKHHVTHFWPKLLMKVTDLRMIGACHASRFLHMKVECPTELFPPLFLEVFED
# Experimental: LanthaScreen™ TR-FRET Thyroid Receptor alpha Coactivator Assay kit (ThermoFisher) and LanthaScreen™ TR-FRET Thyroid Receptor beta Coactivator Assay kit (ThermoFisher) were used for agonist compound screening. […] Buffer C (ThermoFisher) was added to each well before the 4× mixture of fluorescein-SCR2-2 coactivator (200 nM final concentration), Terbium-labeled anti-GST antibody (2 nM final concentration), and THR alpha-LBD (0.4 nM final concentration) or THR beta-LBD (1.0 nM final concentration) was added.
# THR alpha-LBD = biological target: T2, THR alpha-LBD (Homo sapiens, UniProt P10827); test: LanthaScreen TR-FRET Thyroid Receptor alpha Coactivator Assay; assay type: biochemical; details: 2 hours incubation at room temperature, run in duplicate multiple times, average data, read-out: EC50 THRα-FRET
# T2 construct: THR alpha-LBD (0.4 nM final concentration) or THR beta-LBD (1.0 nM final concentration) was added; purchased ThermoFisher
# T2 sequence (P10827 163-410 isoform P10827-2 limits assumed, other chains not shown): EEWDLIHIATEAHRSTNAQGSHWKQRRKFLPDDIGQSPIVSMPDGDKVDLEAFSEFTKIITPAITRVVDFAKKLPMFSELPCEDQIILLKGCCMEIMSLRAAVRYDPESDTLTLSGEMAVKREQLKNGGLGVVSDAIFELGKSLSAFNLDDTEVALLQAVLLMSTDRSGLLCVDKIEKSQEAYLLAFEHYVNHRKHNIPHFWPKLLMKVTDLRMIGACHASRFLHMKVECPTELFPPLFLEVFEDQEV
# Experimental: Example B1: Time-Resolved Fluorescence Resonance Energy Transfer (TR-FRET) Assay for Thyroid Hormone Receptor Agonist Screening
# LanthaScreen™ TR-FRET Thyroid Receptor alpha Coactivator Assay kit (ThermoFisher) and LanthaScreen™ TR-FRET Thyroid Receptor beta Coactivator Assay kit (ThermoFisher) were used for agonist compound screening. Compounds in DMSO were diluted using ECHO Liquid Handler (Labcyte Inc.) into 384 plates in 10-point 3-fold series in duplicate (5 micro M final top concentration). Buffer C (ThermoFisher) was added to each well before the 4× mixture of fluorescein-SCR2-2 coactivator (200 nM final concentration), Terbium-labeled anti-GST antibody (2 nM final concentration), and THR alpha-LBD (0.4 nM final concentration) or THR beta-LBD (1.0 nM final concentration) was added. After 2 hours incubation at room temperature in the dark, the TR-FRET signal was measured on an EnVision plate reader (PerkinElmer) with excitation at 340 nm and dual emission readout at 495 and 520 nm with the delay time of 100 micro second and the integration time of 200 micro second. The ratio of emission signal at 520 and at 495 was used to calculate EC50 using GraphPad Prism (GraphPad Software). […] Compounds' THR-beta selectivity values in Table 2 are derived from T3-selectivity normalized data.
SMILES,THRβ-Selectivity (THR beta-LBD; listed as 31 P1),EC50 (THR beta-LBD) [nM],EC50 (THR alpha-LBD) [nM],THRβ-Selectivity (THR beta-LBD),THRβ-Selectivity (THR beta-LBD; listed as 33 P1),THRβ-Selectivity (THR beta-LBD; listed as 33 P2)
"C[C@@H](O)c1cc(Oc2c(Cl)cc(-c3nn(C)c(=O)[nH]c3=O)cc2Cl)n[nH]c1=O (single isomer, unassigned) [Compound 31 P1]",>26.2,1200,> 5000,–,–,–
"C[C@@H](O)c1cc(Oc2c(Cl)cc(-c3nn(C)c(=O)[nH]c3=O)cc2Cl)n[nH]c1=O (single isomer, unassigned) [Compound 31 P2]",–,452,3080,21.7,–,–
"CC[C@@H](C)c1cc(Oc2c(Cl)cc(-c3n[nH]c(=O)[nH]c3=O)cc2Cl)n[nH]c1=O (single isomer, unassigned) [Compound 33 P1]",–,696,2430,–,11.3,–
"CC[C@@H](C)c1cc(Oc2c(Cl)cc(-c3n[nH]c(=O)[nH]c3=O)cc2Cl)n[nH]c1=O (single isomer, unassigned) [Compound 33 P2]",–,65.7,274,–,–,14.1
"CC(C)c1cc(Oc2c(Cl)cc(-c3n[nH]c(=O)[nH]c3=O)cc2Cl)nn(C)c1=O [Compound 1, 6-(3,5-dichloro-4-((5-isopropyl-1-methyl-6-oxo-1,6-dihydropyridazin-3-yl)oxy)phenyl)-1,2,4-triazine-3,5(2H,4H)-dione]",–,24.7,79.2,17,–,–
"CC(C)c1cc(Oc2c(Cl)cc(-c3n[nH]c(=O)[nH]c3=O)cc2Cl)n[nH]c1=O [Compound 2, 6-(3,5-dichloro-4-((5-isopropyl-6-oxo-1,6-dihydropyridazin-3-yl)oxy)phenyl)-1,2,4-triazine-3,5(2H,4H)-dione]",–,141,681,27.7,–,–
"CC(C)c1cc(Oc2c(Cl)cc(-c3nn(C)c(=O)[nH]c3=O)cc2Cl)n[nH]c1=O [Compound 3, 6-(3,5-dichloro-4-((5-isopropyl-6-oxo-1,6-dihydropyridazin-3-yl)oxy)phenyl)-2-methyl-1,2,4-triazine-3,5(2H,4H)-dione]",–,114,1230,69.8,–,–
"CC(C)c1cc(Oc2c(Cl)cc(-c3nn(C(C)C)c(=O)[nH]c3=O)cc2Cl)n[nH]c1=O [Compound 4, 6-(3,5-dichloro-4-((5-isopropyl-6-oxo-1,6-dihydropyridazin-3-yl)oxy)phenyl)-2-isopropyl-1,2,4-triazine-3,5(2H,4H)-dione]",–,> 5000,> 5000,>3.0,–,–
"Cc1c(-c2n[nH]c(=O)[nH]c2=O)cc(Cl)c(Oc2cc(C(C)C)c(=O)n(C)n2)c1Cl [Compound 5, 6-(3,5-dichloro-4-((5-isopropyl-1-methyl-6-oxo-1,6-dihydropyridazin-3-yl)oxy)-2-methylphenyl)-1,2,4-triazine-3,5(2H,4H)-dione]",–,98.6,62.6,2.3,–,–
"O=c1[nH]nc(-c2cc(Cl)c(Oc3cc(C4CC4)c(=O)[nH]n3)c(Cl)c2)c(=O)[nH]1 [Compound 6, 6-(3,5-dichloro-4-((5-cyclopropyl-6-oxo-1,6-dihydropyridazin-3-yl)oxy)phenyl)-1,2,4-triazine-3,5(2H,4H)-dione]",–,196,981,23.6,–,–
"CC(C)c1cc(C(=O)c2c(Cl)cc(-c3n[nH]c(=O)[nH]c3=O)cc2Cl)nn(C)c1=O [Compound 7, 6-(3,5-dichloro-4-(5-isopropyl-1-methyl-6-oxo-1,6-dihydropyridazine-3-carbonyl)phenyl)-1,2,4-triazine-3,5(2H,4H)-dione]",–,136,435,15.3,–,–
"CC(C)c1cc(C(=O)c2c(Cl)cc(-c3n[nH]c(=O)[nH]c3=O)cc2Cl)n[nH]c1=O [Compound 8, 6-(3,5-dichloro-4-(5-isopropyl-6-oxo-1,6-dihydropyridazine-3-carbonyl)phenyl)-1,2,4-triazine-3,5(2H,4H)-dione]",–,1450,3670,9.5,–,–
"CC(C)c1cc(Oc2c(Cl)cc(-c3nn(C)c(=O)[nH]c3=O)cc2Cl)nn(C)c1=O [Compound 9, 6-(3,5-dichloro-4-((5-isopropyl-1-methyl-6-oxo-1,6-dihydropyridazin-3-yl)oxy)phenyl)-2-methyl-1,2,4-triazine-3,5(2H,4H)-dione]",–,23.9,161,25.5,–,–
"CC(C)c1cc(C(=O)c2c(Cl)cc(-c3nn(C)c(=O)[nH]c3=O)cc2Cl)n[nH]c1=O [Compound 13, 6-(3,5-dichloro-4-(5-isopropyl-6-oxo-1,6-dihydropyridazine-3-carbonyl)phenyl)-2-methyl-1,2,4-triazine-3,5(2H,4H)-dione]",–,750,> 5000,>27.4,–,–
"CC(C)c1cc(Cc2c(Cl)cc(-c3n[nH]c(=O)[nH]c3=O)cc2Cl)n[nH]c1=O [Compound 15, 6-(3,5-dichloro-4-((5-isopropyl-6-oxo-1,6-dihydropyridazin-3-yl)methyl)phenyl)-1,2,4-triazine-3,5(2H,4H)-dione]",–,381,3340,31.2,–,–
"CC(C)c1cc(Cc2c(Cl)cc(-c3nn(C)c(=O)[nH]c3=O)cc2Cl)n[nH]c1=O [Compound 16, 6-(3,5-dichloro-4-((5-isopropyl-6-oxo-1,6-dihydropyridazin-3-yl)methyl)phenyl)-2-methyl-1,2,4-triazine-3,5(2H,4H)-dione]",–,163,1210,28.3,–,–
"CC(C)c1cc(Cc2c(Cl)cc(-c3n[nH]c(=O)[nH]c3=O)cc2Cl)nn(C)c1=O [Compound 17, 6-(3,5-dichloro-4-((5-isopropyl-1-methyl-6-oxo-1,6-dihydropyridazin-3-yl)methyl)phenyl)-1,2,4-triazine-3,5(2H,4H)-dione]",–,34.6,99.6,11.1,–,–
"CCn1nc(-c2cc(Cl)c(Oc3cc(C(C)C)c(=O)[nH]n3)c(Cl)c2)c(=O)[nH]c1=O [Compound 19, 6-(3,5-dichloro-4-((5-isopropyl-6-oxo-1,6-dihydropyridazin-3-yl)oxy)phenyl)-2-ethyl-1,2,4-triazine-3,5(2H,4H)-dione]",–,1410,> 5000,13.9,–,–
"CCOC(=O)Cn1nc(-c2cc(Cl)c(Oc3cc(C(C)C)c(=O)[nH]n3)c(Cl)c2)c(=O)[nH]c1=O [Compound 20, ethyl 2-(6-(3,5-dichloro-4-((5-isopropyl-6-oxo-1,6-dihydropyridazin-3-yl)oxy)phenyl)-3,5-dioxo-4,5-dihydro-1,2,4-triazin-2(3H)-yl)acetate]",–,1930,1330,2.7,–,–
"CC(C)c1cc(Oc2c(Cl)cc(-c3nn(CC(F)(F)F)c(=O)[nH]c3=O)cc2Cl)n[nH]c1=O [Compound 21, 6-(3,5-dichloro-4-((5-isopropyl-6-oxo-1,6-dihydropyridazin-3-yl)oxy)phenyl)-2-(2,2,2-trifluoroethyl)-1,2,4-triazine-3,5(2H,4H)-dione]",–,2880,> 5000,>9.5,–,–
"CC(C)c1cc(Oc2c(Cl)cc(-c3nn(CC#N)c(=O)[nH]c3=O)cc2Cl)n[nH]c1=O [Compound 22, 2-(6-(3,5-dichloro-4-((5-isopropyl-6-oxo-1,6-dihydropyridazin-3-yl)oxy)phenyl)-3,5-dioxo-4,5-dihydro-1,2,4-triazin-2(3H)-yl)acetonitrile]",–,1170,3440,12.9,–,–
"CC(C)c1cc(Oc2c(Cl)cc(-c3nn(CC(F)F)c(=O)[nH]c3=O)cc2Cl)n[nH]c1=O [Compound 23, 6-(3,5-dichloro-4-((5-isopropyl-6-oxo-1,6-dihydropyridazin-3-yl)oxy)phenyl)-2-(2,2-difluoroethyl)-1,2,4-triazine-3,5(2H,4H)-dione]",–,1380,3230,9.2,–,–
